Measurements published in article PMC12257510, “Structure-Guided Design of a KMT9 Inhibitor Prodrug with Cellular Activity” (Journal of Medicinal Chemistry, 2025).
pIC50, pKd: −log10 of the molar value. Like-named read-outs stand apart in the source and are kept apart here.

What was measured:
KMT9 [1] = target: T1, KMT9 (Homo sapiens, UniProt Q9Y5N5); assay: Microscale thermophoresis (MST) binding assay
T1 sequence (Q9Y5N5 1-214): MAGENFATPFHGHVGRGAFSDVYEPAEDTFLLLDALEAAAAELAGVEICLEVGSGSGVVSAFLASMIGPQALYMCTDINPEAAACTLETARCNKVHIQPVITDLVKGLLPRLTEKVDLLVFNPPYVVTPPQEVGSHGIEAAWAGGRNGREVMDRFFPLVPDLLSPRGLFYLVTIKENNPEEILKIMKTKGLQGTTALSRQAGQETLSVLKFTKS
T1 sequence (Q9UI30 1-125 partner): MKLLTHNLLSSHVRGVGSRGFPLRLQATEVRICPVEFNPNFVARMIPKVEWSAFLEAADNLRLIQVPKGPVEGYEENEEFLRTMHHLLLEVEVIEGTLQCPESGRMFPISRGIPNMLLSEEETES
Method: To determine the binding affinity of the compound and KMT9, microscale thermophoresis (MST) analysis was performed with a NanoTemper Monolith NT.115 instrument (NanoTemper Technologies GmbH). KMT9 was labeled with a RED-Tris-NTA labeling kit (NanoTemper Technologies GmbH) based on the manufacturer’s instructions. Buffer including 25 mM HEPES (pH 7.5), 100 mM NaCl, 1 mM DTT and 0.05% Tween was used for the reaction buffer. Varying concentrations of compounds were titrated against His-tag labeled KMT9 proteins (20 nM). Samples were loaded into standard Capillaries (NanoTemper Technologies GmbH) and MST measurements were performed using 40% MST power and 100% LED power. For each set of binding experiments, MST measurement was carried out with Binding Affinity module in MO. Control program under Nano-RED excitation. Data sets were processed with the MO.Affinity Analysis software (NanoTemper Technologies GmbH).

KMT9 [2] = target: T1, KMT9; assay: KMT9 methyltransferase inhibition assay (3H-SAM, ETF1 substrate)
Method: The assay was carried out in 0.5 mL Eppendorf tubes in duplicates. Assay buffer consisted of 50 mM BTP, 1 mM MgCl2, 1 mM DTT and 0,01% Triton-X100 at a pH of 8.5 (adjusted using 1 M HCl and 1 M NaOH). 20X inhibitor stock (in DMSO), 2× enzyme stock and 4× substrate mix (both in assay buffer) were prepared. The substrate mix consisted of Tritium-labeled S-adenosylmethionine (3H-SAM), S-adenosylmethionine (SAM) and eukaryotic peptide chain release factor subunit1 (, residues 140–275) (ETF1). Final assay concentrations were set to 25 nM KMT9, 0.3 μM 3H-SAM, 0.7 μM SAM and 5 μM ETF1. […] Five μL of 4× substrate mix was added to initiate the reaction. The final reaction volume was 20 μL. For the positive control, the compound was replaced by DMSO; for the negative control, the compound was replaced by DMSO and KMT9 was replaced by assay buffer. The reaction mix was incubated in an Eppendorf thermomixer comfort at 30 °C for 2 h, shaking at 300 rpm. The reaction was quenched using 5 μL 50% trichloroacetic acid (TCA) and incubated at 25 °C for 5 min. Twenty-two μL of the mixture was transferred into 96-well MultiScreenHTS FB filter plates (Merck KGaA, Darmstadt, Germany) and washed four times with 10% TCA and two times with 100% ethanol. The plate was dried overnight, the filters were transferred into individual 6 mL Pony Vials (PerkinElmer Inc., Waltham, MA, USA) and incubated in 3 mL of Ultima Gold scintillation cocktail (PerkinElmer Inc., Waltham, MA, USA) for 30 min. The scintillation signal was measured for 3× 1 min using TriCarb 2910 TR (PerkinElmer) scintillation counter in 3H CPM mode (LL: 0, UL: 18.6).
Inhibition was calculated using the following formula: Inhibition[%]=(1−xc−xpos/xpos−xneg)×100
With xc: signal of compound, xpos: mean signal of positive control, xneg: mean signal of negative control. Data fitting was carried out by GraphPad 7.0 using nonlinear fit ([Inhibitor] vs response – variable slope (four parameters)).

KMT9 [3] = target: T1, KMT9; assay: Thermal shift assay (SyproOrange); assay type: binding; conditions: read-out: ΔTm
Method: The assay was carried out in 96-well Hard-Shell PCR plates (Bio-Rad Laboratories Inc.). […] Final assay concentrations were set to 500 μM of compound 8, 2 μM KMT9 and 5× SO. One μL of 20× compound, 4 μL of assay buffer, 10 μL of 2× KMT9 and 5 μL of 4× SO were pipetted. For the no-compound control, 20× inhibitor stock was replaced by DMSO. The final volume was 20 μL. The plate was spun down at 700 rpm for 1 min using a Hettich UNIVERSAL 320 centrifuge and incubated at 25 °C, shaking at 600 rpm. After incubation, the plate was spun down for 1 min at 700 rpm and measurement was conducted using a CFX96 Touch Real-Time PCR Detection System (Bio-Rad Laboratories Inc.). The plate was equilibrated at 20 °C for 4 min and then heated stepwise at a rate of 1 °C per 15 s until 95 °C. After every step, fluorescence was measured in FRET mode. Calculation of melting points was conducted by a Boltzman sigmoidal model using GraphPad Prism 7.0.

[4] = MST, binding to KMT9, read-out: Kd
[5] = thermal shift, 2 μM KMT9, 500 μM compound

Row | SMILES | pKd (KMT9 [1]; [4]) | pIC50 (KMT9 [2]) | pKd (KMT9 [1]) | ΔTm at 500 µM (KMT9 [3]) | Reduction of potency compared to compound 2d (KMT9 [1]; vs compound 2d) | ΔTm at 500 µM (KMT9 [3]; [5]) | Decrease of binding affinity compared to compound 7b (KMT9 [1]; Kd ratio vs compound 7b)
1 | Nc1ncnc2c1ncn2[C@@H]1O[C@H](CSCC[C@H](N)C(=O)O)[C@@H](O)[C@H]1O [SAH, S-adenosyl-L-homocysteine, reference compound] | 4.96 |  |  |  |  |  | 
2 | Nc1ncnc2c1ncn2[C@@H]1O[C@H](CN(CC[C@H](N)C(=O)O)CC[C@H](N)C(=O)O)[C@@H](O)[C@H]1O [compound 1, (2S,2’S)-4,4’-((((2R,3S,4R,5R)-5-(6-Amino-9H-purin-9-yl)-3,4-dihydroxytetrahydrofuran-2-yl)methyl)azanediyl)bis(2-aminobutanoic Acid)] | 5.17 |  |  |  |  |  | 
3 | Nc1ncnc2c1ncn2[C@@H]1O[C@H](CN(CC[C@H](N)C(=O)O)CC[C@H](N)c2ccccc2)[C@@H](O)[C@H]1O [compound 2a] |  | 5.52 | 4.82 | 10.6 °C |  |  | 
4 | CN(C)CCCN(CC[C@H](N)C(=O)O)C[C@H]1O[C@@H](n2cnc3c(N)ncnc32)[C@H](O)[C@@H]1O [compound 3b, reference compound] | 6.00 | 5.22 |  | 9.55 °C | ~100 fold |  | 
5 | NCCCN(CCC(N)C(F)F)C[C@H]1O[C@@H](n2cnc3c(N)ncnc32)[C@H](O)[C@@H]1O (stereo partly drawn) [compound 4b, (2R,3S,4R,5R)-2-(((3-Amino-4,4-difluorobutyl)(3-aminopropyl)amino)methyl)-5-(6-amino-9H-purin-9-yl)tetrahydrofuran-3,4-diol] |  | 3.70 | 4.00 | 2.86 °C |  |  | 
6 | NCCCN(CCC(N)C(F)(F)F)C[C@H]1O[C@@H](n2cnc3c(N)ncnc32)[C@H](O)[C@@H]1O (stereo partly drawn) [compound 4c, (2R,3S,4R,5R)-2-(((3-Amino-4,4,4-trifluorobutyl)(3-aminopropyl)amino)methyl)-5-(6-amino-9H-purin-9-yl)tetrahydrofuran-3,4-diol] | < 3.30 | 3.30 |  |  |  | 3.43 °C | 
7 | C[C@@H](CN(CCCN)C[C@H]1O[C@@H](n2cnc3c(N)ncnc32)[C@H](O)[C@@H]1O)N1CCC(O)CC1 [compound 4e, (2R,3R,4S,5R)-2-(6-Amino-9H-purin-9-yl)-5-(((3-aminopropyl)((s)-2-(4-hydroxypiperidin-1-yl)propyl)amino)methyl)tetrahydrofuran-3,4-diol] | 4.30 | < 3.30 |  | 2.78 °C |  |  | 
8 | NCCCN(C[C@H]1C=CCN1)C[C@H]1O[C@@H](n2cnc3c(N)ncnc32)[C@H](O)[C@@H]1O [compound 4f, (2R,3R,4S,5R)-2-(6-Amino-9H-purin-9-yl)-5-(((3-aminopropyl)(((R)-2,5-dihydro-1H-pyrrol-2-yl)methyl)amino)methyl)tetrahydrofuran-3,4-diol] |  | 3.60 | < 3.30 | -0.52 °C |  |  | 
9 | Nc1ncnc2c1ncn2[C@@H]1O[C@H](CN(CCCNCc2ccccc2)CC[C@H](N)C(=O)O)[C@@H](O)[C@H]1O [compound 5a, (S)-2-Amino-4-((((2R,3S,4R,5R)-5-(6-amino-9H-purin-9-yl)-3,4-dihydroxytetrahydrofuran-2-yl)methyl)(3-(benzylamino)propyl)amino)butanoic acid] |  | 7.00 | 7.40 | 19.6 °C |  |  | 
10 | Nc1ncnc2c1ncn2[C@@H]1O[C@H](CN(CCCNCCc2ccccc2)CC[C@H](N)C(=O)O)[C@@H](O)[C@H]1O [compound 5b, (S)-2-Amino-4-((((2R,3S,4R,5R)-5-(6-amino-9H-purin-9-yl)-3,4-dihydroxytetrahydrofuran-2-Yyl)methyl)(3-(phenethylamino)propyl)amino)butanoic acid] |  | 7.47 | 8.00 | 20.9 °C |  |  | 
11 | Nc1ncnc2c1ncn2[C@@H]1O[C@H](CN(CCCNCCCc2ccccc2)CC[C@H](N)C(=O)O)[C@@H](O)[C@H]1O [compound 5c, (S)-2-Amino-4-((((2R,3S,4R,5R)-5-(6-amino-9H-purin-9-yl)-3,4-dihydroxytetrahydro-furan-2-yl)methyl)(3-((3-phenylpropyl)amino)propyl)amino)butanoic acid] |  | 7.19 | 7.70 | 21.3 °C |  |  | 
12 | CNc1ncnc2c1ccn2[C@@H]1C[C@H](CN(CCCNCCc2ccc(Oc3ccccc3)cc2)CC[C@H](N)C(=O)O)[C@@H](O)[C@H]1O [compound 7a, (S)-2-Amino-4-((((1R,2R,3S,4R)-2,3-dihydroxy-4-(4-(methylamino)-7H-pyrrolo[2,3-d]pyrimidin-7-yl)cyclopentyl)methyl)(3-((4-phenoxyphenethyl)amino)propyl)amino) Butanoic acid] | 7.15 | 6.22 |  |  |  | 17.5 °C | 
13 | CNc1ncnc2c1ccn2C1CC(CN(CCCOCCc2ccc(Oc3ccc(Cl)cc3)c(F)c2)CCC(N)C(=O)O)C(O)C1O [compound 7b-N, (S)-2-Amino-4-((3-(4-(4-chlorophenoxy)-3-fluorophenethoxy)propyl)(((1R,2R,3S,4R)-2,3-dihydroxy-4-(4-(methylamino)-7H-pyrrolo[2,3-d]pyrimidin-7-yl)cyclopentyl)methyl)amino)butanoic Acid] | ~4.25 |  |  |  |  |  | more than 1000 fold
